Measured values published in ChEMBL document CHEMBL3886972, “Chemical entities” (2016).

Key:
[1] = target: DNA-dependent protein kinase catalytic subunit (Homo sapiens, UniProt P78527); assay: ADP Hunter Plus Assay: The kinase activity was measured by using the commercial ADP Hunter Plus assay available from DiscoveRx (#90-0083), which is a homogeneous assay to measure the accumulation of ADP, a universal product of kinase activity. The enzyme, DNA-PK was purchased from Promega (#V5811). The assay was done following the manufacturer recommendations with slight modifications: Mainly the kinase buffer was replace by 15 mM HEPES, pH 7.5, 10 mM MgCl2, 20 mM NaCl, 1 mM EGTA, 0.1 mg/mL BGG, 0.02% Tween 20. The DNA-PK was assayed in a titration experiment to determine the optimal protein concentration for the inhibition assay. To calculate the […] of the Compounds, serial 1:3 dilutions of the compounds were added to the enzyme at a fixed concentration (2 U/uL). The enzyme was preincubated with the inhibitor and 200 uM DNA substrate and then ATP was added to a final 75 uM concentration. Reaction was carried out for 1 hour at 37° C. Reagent A and B were sequentially added to the wells and plates were incubated for 30 min at RT. Fluorescence counts were read in a EnVision instrument (Perkin Elmer) with the recommended settings (550 and 590 nm as excitation and emission wavelengths, respectively).
Sequence of DNA-dependent protein kinase catalytic subunit (P78527 whole entry): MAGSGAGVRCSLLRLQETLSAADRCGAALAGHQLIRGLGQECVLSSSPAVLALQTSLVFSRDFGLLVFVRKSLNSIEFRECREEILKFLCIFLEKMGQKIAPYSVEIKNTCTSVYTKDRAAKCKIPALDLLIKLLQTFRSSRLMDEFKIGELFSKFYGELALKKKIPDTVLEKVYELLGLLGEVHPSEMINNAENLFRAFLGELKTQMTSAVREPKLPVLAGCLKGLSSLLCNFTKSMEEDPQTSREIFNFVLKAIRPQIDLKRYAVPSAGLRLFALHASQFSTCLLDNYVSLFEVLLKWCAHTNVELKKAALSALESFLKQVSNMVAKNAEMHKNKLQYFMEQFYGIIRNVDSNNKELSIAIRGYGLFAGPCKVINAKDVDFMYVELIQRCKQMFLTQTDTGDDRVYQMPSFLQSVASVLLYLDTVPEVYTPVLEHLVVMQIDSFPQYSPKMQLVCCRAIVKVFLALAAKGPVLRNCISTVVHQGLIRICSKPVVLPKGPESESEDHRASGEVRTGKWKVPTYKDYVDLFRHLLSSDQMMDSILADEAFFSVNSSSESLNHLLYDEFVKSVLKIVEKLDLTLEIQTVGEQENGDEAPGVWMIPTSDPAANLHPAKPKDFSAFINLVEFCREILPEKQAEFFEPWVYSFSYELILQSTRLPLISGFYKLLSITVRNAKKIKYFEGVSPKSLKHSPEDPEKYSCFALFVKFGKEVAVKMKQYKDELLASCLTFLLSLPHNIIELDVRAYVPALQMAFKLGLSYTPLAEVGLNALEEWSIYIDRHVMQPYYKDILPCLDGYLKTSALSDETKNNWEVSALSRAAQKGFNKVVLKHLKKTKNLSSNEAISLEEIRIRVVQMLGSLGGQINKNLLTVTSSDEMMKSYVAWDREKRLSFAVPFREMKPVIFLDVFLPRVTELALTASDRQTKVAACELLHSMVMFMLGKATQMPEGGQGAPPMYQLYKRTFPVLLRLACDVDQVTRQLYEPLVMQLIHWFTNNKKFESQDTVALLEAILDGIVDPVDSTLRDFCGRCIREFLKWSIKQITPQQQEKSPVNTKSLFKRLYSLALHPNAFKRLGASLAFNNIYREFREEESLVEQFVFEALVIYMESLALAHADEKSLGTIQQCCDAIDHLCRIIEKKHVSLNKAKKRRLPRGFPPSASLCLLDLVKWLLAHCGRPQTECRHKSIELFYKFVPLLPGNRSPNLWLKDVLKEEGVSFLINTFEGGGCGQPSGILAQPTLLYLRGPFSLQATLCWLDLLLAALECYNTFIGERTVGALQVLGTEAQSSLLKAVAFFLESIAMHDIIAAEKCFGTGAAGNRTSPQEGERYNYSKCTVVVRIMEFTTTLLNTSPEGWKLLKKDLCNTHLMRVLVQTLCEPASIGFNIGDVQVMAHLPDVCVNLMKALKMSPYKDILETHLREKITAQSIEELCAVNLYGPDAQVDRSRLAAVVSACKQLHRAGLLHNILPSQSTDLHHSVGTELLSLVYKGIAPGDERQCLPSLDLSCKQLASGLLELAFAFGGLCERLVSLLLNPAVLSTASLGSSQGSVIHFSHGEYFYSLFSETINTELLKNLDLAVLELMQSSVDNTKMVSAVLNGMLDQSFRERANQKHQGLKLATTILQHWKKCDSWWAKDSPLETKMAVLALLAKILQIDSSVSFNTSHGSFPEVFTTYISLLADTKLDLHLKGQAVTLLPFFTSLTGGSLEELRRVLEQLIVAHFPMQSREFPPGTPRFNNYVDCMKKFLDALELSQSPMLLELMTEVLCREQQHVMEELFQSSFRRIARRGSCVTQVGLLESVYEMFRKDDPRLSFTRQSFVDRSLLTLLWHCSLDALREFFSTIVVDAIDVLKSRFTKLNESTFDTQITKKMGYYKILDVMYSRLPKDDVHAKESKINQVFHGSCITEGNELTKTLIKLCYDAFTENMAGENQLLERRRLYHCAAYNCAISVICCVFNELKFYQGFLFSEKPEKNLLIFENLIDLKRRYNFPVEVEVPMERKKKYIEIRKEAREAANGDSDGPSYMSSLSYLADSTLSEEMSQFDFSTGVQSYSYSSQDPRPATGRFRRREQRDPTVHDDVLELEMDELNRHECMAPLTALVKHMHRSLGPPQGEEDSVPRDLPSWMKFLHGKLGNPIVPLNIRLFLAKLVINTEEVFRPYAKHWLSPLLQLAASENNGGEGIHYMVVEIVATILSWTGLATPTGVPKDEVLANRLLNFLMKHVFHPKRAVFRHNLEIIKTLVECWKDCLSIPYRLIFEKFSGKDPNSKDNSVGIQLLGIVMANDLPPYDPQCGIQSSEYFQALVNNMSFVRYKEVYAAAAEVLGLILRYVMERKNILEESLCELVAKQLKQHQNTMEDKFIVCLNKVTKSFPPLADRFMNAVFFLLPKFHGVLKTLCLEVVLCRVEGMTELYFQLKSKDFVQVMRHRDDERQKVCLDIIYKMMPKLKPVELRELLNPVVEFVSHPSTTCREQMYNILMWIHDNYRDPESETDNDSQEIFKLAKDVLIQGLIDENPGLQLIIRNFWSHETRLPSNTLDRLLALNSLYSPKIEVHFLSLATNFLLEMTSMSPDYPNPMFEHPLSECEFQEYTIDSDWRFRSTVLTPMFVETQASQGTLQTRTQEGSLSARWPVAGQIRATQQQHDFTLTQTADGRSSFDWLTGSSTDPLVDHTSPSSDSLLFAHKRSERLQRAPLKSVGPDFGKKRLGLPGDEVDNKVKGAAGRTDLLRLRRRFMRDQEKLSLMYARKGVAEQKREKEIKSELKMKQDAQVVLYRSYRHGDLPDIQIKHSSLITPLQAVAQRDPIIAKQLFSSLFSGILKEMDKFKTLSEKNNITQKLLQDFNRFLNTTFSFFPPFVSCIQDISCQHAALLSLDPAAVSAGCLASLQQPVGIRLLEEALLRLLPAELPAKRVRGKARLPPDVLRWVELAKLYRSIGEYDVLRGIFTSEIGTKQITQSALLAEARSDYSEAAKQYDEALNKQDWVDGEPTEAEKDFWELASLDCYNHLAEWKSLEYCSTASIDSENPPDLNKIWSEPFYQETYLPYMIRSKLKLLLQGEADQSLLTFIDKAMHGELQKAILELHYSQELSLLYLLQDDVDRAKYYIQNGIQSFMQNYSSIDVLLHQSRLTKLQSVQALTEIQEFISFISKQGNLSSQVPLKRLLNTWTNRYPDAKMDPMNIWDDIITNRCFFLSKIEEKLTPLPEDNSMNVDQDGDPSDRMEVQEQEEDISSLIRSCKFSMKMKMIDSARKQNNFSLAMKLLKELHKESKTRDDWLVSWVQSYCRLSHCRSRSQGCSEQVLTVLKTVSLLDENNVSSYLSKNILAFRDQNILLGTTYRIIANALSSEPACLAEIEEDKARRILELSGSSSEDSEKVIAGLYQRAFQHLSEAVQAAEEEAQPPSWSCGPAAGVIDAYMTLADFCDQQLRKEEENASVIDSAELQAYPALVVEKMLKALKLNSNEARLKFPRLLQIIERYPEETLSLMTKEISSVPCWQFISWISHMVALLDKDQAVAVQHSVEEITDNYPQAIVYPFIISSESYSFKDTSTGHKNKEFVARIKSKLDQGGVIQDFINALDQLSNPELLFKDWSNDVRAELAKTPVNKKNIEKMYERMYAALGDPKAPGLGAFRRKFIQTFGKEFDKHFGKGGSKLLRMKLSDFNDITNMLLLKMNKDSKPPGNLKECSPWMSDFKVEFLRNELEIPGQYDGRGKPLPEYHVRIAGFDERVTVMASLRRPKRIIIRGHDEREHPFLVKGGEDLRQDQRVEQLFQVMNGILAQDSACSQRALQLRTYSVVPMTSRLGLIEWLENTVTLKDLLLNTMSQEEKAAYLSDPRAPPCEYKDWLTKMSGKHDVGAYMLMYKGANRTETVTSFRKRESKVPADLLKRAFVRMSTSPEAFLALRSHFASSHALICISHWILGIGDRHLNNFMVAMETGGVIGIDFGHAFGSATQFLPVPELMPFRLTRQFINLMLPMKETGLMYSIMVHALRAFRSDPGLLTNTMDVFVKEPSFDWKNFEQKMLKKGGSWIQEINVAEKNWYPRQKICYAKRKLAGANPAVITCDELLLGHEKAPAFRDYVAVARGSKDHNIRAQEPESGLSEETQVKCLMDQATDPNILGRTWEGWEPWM

[2] = target: PI3-kinase p110-alpha/p85-alpha (Homo sapiens, UniProt P42336); assay: null: The kinase activity was measured by using the commercial ADP Hunter Plus assay available from DiscoveRx (#33-016), which is a homogeneous assay to measure the accumulation of ADP, a universal product of kinase activity. […] The reaction was carried out for 1 hour at 25° C. Reagent A and B were sequentially added to the wells and plates were incubated for 30 min at 37° C. Fluorescence counts were read in a Victor instrument (Perkin Elmer) with the recommended settings (544 and 580 nm as excitation and emission wavelengths, respectively).; type: protein-complex assay

Row | Compound | IC50 [1] [µM] | IC50 [2] [µM]
1 | CNc1nc2cc(Cl)ccc2n1-c1nc2c(c(C3(S(C)(=O)=O)CCC3)n1)OC[C@@H]1COCCN21 | 10 | ≥ 50
2 | CS(=O)(=O)C1(c2nc(-c3cncc4[nH]ccc34)nc3c2OCC2COCCN32)CCOCC1 (stereo not given) | ≥ 25 | 2
3 | CCOC(=O)N1CCC(c2nc(-c3cccc4[nH]ccc34)nc3c2OC[C@@H]2COCCN32)(S(C)(=O)=O)CC1 | 10 | 7.38
4 | CS(=O)(=O)Cc1nc(-c2cccc3[nH]ccc23)nc2c1OCC1COCCN21 (stereo not given) | 10 | 6.6
5 | CS(=O)(=O)C1(c2nc(-c3ccnc4[nH]ccc34)nc3c2OCC2COCCN32)CCOCC1 (stereo not given) | 10 | 8.5
6 | Cc1cc2c(-c3nc4c(c(C5(S(C)(=O)=O)CCOCC5)n3)OCC3COCCN43)cccc2[nH]1 (stereo not given) | ≥ 25 | 10.3
7 | CC1(c2nc(-c3cccc4[nH]ccc34)nc3c2OCC2COCCN32)CCCS1(=O)=O (stereo not given) | 10 | 6.9
8 | CNc1nc2ccccc2n1-c1nc2c(c(C(C)(C)[S@TB1](C)(=O)=O)n1)OCCC1COCCN21 (stereo not given) | 1.88 | 
9 | O=S(=O)(Cc1nc(-c2cccc3[nH]ccc23)nc2c1OCC1COCCN21)C(F)(F)F (stereo not given) | ≥ 25 | 14.9
10 | CNc1nc2ccccc2n1-c1nc2c(c(C3(S(C)(=O)=O)CCOCC3)n1)OCC1COCCN21 (stereo not given) | 10 | ≥ 50
11 | CS(=O)(=O)C1(c2nc(-c3cccc4[nH]ccc34)nc3c2OCC2COCCN32)CCOCC1 (stereo not given) |  | 13.3
12 | CC(C)(c1nc(-c2cccc3[nH]ccc23)nc2c1OCC[C@H]1COCCN21)S(C)(=O)=O |  | 19.3
13 | CNc1nc2ccccc2n1-c1nc2c(c(C(C)(C)O)n1)OCC1COCCN21 (stereo not given) | 3.18 | 2.17
14 | CC(C)(c1nc(-c2c(F)ccc3[nH]ccc23)nc2c1OCC1COCCN21)S(C)(=O)=O (stereo not given) |  | 7.9
15 | COc1ccc(-c2nc3c(c(C4(S(C)(=O)=O)CCOCC4)n2)OCC2COCCN32)c2cc[nH]c12 (stereo not given) | ≥ 25 | 16.9
16 | CS(=O)(=O)C1(c2nc(-c3cccc4[nH]ccc34)nc3c2OC[C@@H]2COCCN32)CCOCC1 |  | 4.9
17 | CC(C)(O)c1nc(-c2cc(F)cc3[nH]ccc23)nc2c1OC[C@@H]1COCCN21 | 0.886 | 2.27
18 | CS(=O)(=O)C1(c2nc(-c3cccc4[nH]ccc34)nc3c2OCC2COCCN32)CC1 (stereo not given) | ≥ 25 | 2.5
19 | C[S@TB17](=O)(=O)Nc1nc(-c2cccc3[nH]ccc23)nc2c1OCC1COCCN21 (stereo not given) | 10 | 6.95
20 | CC(C)(c1nc(-c2ccnc3[nH]ccc23)nc2c1OCC1COCCN21)S(C)(=O)=O (stereo not given) | 2.82 | 0.67
21 | CS(=O)(=O)C1(c2nc(-c3cc(F)cc4[nH]ccc34)nc3c2OCC2COCCN32)CCOCC1 (stereo not given) | 10 | 6
22 | CNc1nc2ccccc2n1-c1nc2c(c(C(C)(C)S(C)(=O)=O)n1)OCC1COCCN21 (stereo not given) |  | 2.8

Row | Compound | IC50 [1] [µM] | IC50 [2] [µM]
23 | c1cc(-c2nc(-c3cccc4[nH]ccc34)c3c(n2)N2CCOCC2CO3)c2cc[nH]c2c1 (stereo not given) | 10 | 6.55
24 | CS(=O)(=O)c1cccc(-c2nc(-c3cccc4[nH]ccc34)nc3c2OCC2COCCN32)c1 (stereo not given) | 5.04 | 10.6
25 | COc1cc(-c2nc3c(c(C4([S@TB1](C)(=O)=O)CCOCC4)n2)OCCC2COCCN32)c2cc[nH]c2c1 (stereo not given) | ≥ 25 | 23.3
26 | COc1cc(-c2nc3c(c(C4(S(C)(=O)=O)CCOCC4)n2)OCC2COCCN32)c2cc[nH]c2c1 (stereo not given) | 10 | 5
27 | C[S@TB17](=O)(=O)C1(c2nc(-c3cc(F)cc4[nH]ccc34)nc3c2OCCC2COCCN32)CCOCC1 (stereo not given) | ≥ 25 | > 10
28 | CC(C)(C#N)c1nc(-c2cccc3[nH]ccc23)nc2c1OCC1COCCN21 (stereo not given) | 10 | 1.67
29 | CS(=O)(=O)C1(c2nc(-c3c(F)ccc4[nH]ccc34)nc3c2OCC2COCCN32)CCOCC1 (stereo not given) | 10 | 21
30 | CC(C)Nc1nc2ccccc2n1-c1nc2c(c(C(C)(C)S(C)(=O)=O)n1)OC[C@@H]1COCCN21 | 4.3 | 6.61
31 | CC(C)(c1nc(-c2cccc3[nH]ccc23)nc2c1OCC1COCCN21)S(C)(=O)=O (stereo not given) | 17.3 | 1.7
32 | CNc1nc2ccc(Cl)cc2n1-c1nc2c(c(C3(S(C)(=O)=O)CCC3)n1)OC[C@@H]1COCCN21 | 10 | ≥ 50
33 | CC(C)(c1nc(-c2cccc3[nH]ccc23)nc2c1OCC1COCCN21)S(=O)(=O)C1CC1 (stereo not given) |  | 2.4
34 | CC(C)(O)c1nc(-c2cccc3[nH]ccc23)nc2c1OCC1COCCN21 (stereo not given) | 7.21 | 2.39
35 | CCNc1nc2ccccc2n1-c1nc2c(c(C(C)(C)S(C)(=O)=O)n1)OC[C@@H]1COCCN21 | 0.196 | 2.65
36 | CN1CCC(c2nc(-c3cccc4[nH]ccc34)nc3c2OCC2COCCN32)(S(C)(=O)=O)CC1 (stereo not given) | ≥ 25 | 12.5
37 | CS(=O)(=O)C1(c2nc(-c3cccc4[nH]ccc34)nc3c2OC[C@@H]2COCCN32)CCC1 | 10 | 3.16
38 | CCCNc1nc2ccccc2n1-c1nc2c(c(C(C)(C)S(C)(=O)=O)n1)OC[C@@H]1COCCN21 | 6.65 | 6.25
39 | CS(=O)(=O)C1(c2nc(-c3cccc4[nH]ccc34)nc3c2OC[C@@H]2COCCN32)CCNCC1 | 4.93 | 1.98
40 | CNc1nc2ccccc2n1-c1nc2c(c(C3(S(C)(=O)=O)CCOCC3)n1)OCCC1COCCN21 (stereo not given) | 10 | ≥ 50
41 | CNc1nc2ccccc2n1-c1nc2c(c(C(C)(C)S(C)(=O)=O)n1)OC[C@@H]1COCCN21 | 1.51 | 1.9
42 | CC(C)(c1nc(-c2cccc3[nH]ncc23)nc2c1OC[C@H]1COCCN21)S(C)(=O)=O | 4.15 | 0.4
43 | CS(=O)(=O)C1(c2nc(-c3cccc4[nH]ccc34)nc3c2OCC[C@@H]2COCCN32)CCOCC1 | ≥ 25 | ≥ 50
44 | CS(=O)(=O)C1(c2nc(-c3cccc4[nH]ccc34)nc3c2OC[C@H]2COCCN32)CCOCC1 |  | 11.5
